Laboratory results as given in ChEMBL document CHEMBL4177599, “The antitubercular activity of various nitro(triazole/imidazole)-based compounds” (Bioorg Med Chem, 2017).
Converted amounts (≈) assume the structure as drawn.

Assays:
Assay type in all cases: functional, organism-based
[1] = test system: Mycobacterium tuberculosis; experiment: Antitubercular activity against rifampicin-resistant Mycobacterium tuberculosis H37Rv RIF-R2 ATCC 35828 after 5 days; settings: H37Rv RIF-R2 ATCC 35828, 120 h
[2] = test system: Mycobacterium tuberculosis; experiment: Antitubercular activity against fluoroquinolone-resistant Mycobacterium tuberculosis H37Rv harboring gyrB D94N mutant after 5 days
[3] = test system: Mycobacterium tuberculosis; experiment: Antitubercular activity against isoniazid-resistant Mycobacterium tuberculosis H37Rv INH-R1 harboring katG Y155 mutant after 5 days
[4] = test system: Mycobacterium tuberculosis; experiment: Antitubercular activity against isoniazid-resistant Mycobacterium tuberculosis INH-R2 ATCC 35822 after 5 days; settings: INH-R2 ATCC 35822, 120 h
[5] = test system: Mycobacterium tuberculosis; experiment: Antitubercular activity against rifampicin-resistant Mycobacterium tuberculosis H37Rv RIF-R1 harboring rpoB S522L mutant after 5 days

| Structure (SMILES) | IC50 [1] | IC90 [1] | MIC [1] | IC50 [2] | IC90 [2] | MIC [2] | IC50 [3] | IC90 [3] | MIC [3] | IC50 [4] | IC90 [4] | MIC [4] | IC50 [5] | IC90 [5] | MIC [5] |
| --- | --- | --- | --- | --- | --- | --- | --- | --- | --- | --- | --- | --- | --- | --- | --- |
| O=C(Cn1ccnc1[N+](=O)[O-])Nc1ccc(Oc2ccc(Cl)cc2)cc1 | 56 µM | > 100 µM | > 200 µM | > 100 µM | > 100 µM | >200 µM | > 100 µM | > 100 µM | >200 µM | > 100 µM | > 100 µM | > 200 µM | 48 µM | > 100 µM | >200 µM |
| O=C(Cn1cnc([N+](=O)[O-])n1)Nc1ccc(Oc2ccc(Cl)cc2)cc1 | 55 µM | 150 µM | 100 µM (≈ 37.4 µg/mL) | 56 µM | 84 µM | 94 µM (≈ 35.1 µg/mL) | 54 µM | 76 µM | 91 µM (≈ 34 µg/mL) | 36 µM | 54 µM | 55 µM (≈ 20.6 µg/mL) | 58 µM | 91 µM | 98 µM (≈ 36.6 µg/mL) |
| NNC(=O)c1ccncc1 [ISONIAZID] |  |  | 0.67 µM (≈ 0.0919 µg/mL) |  |  | 0.35 µM (≈ 0.048 µg/mL) |  |  | >200 µM |  |  | > 200 µM |  |  | 0.31 µM (≈ 0.0425 µg/mL) |
| CC(O)(Cn1cnc([N+](=O)[O-])n1)c1ccc(-c2ccc(C#N)cc2)cc1 (stereo not given) |  |  | > 200 µM |  |  | >200 µM |  |  | >200 µM |  |  | > 200 µM |  |  | >200 µM |
| O=C(CCn1cnc([N+](=O)[O-])n1)Nc1ccc(Oc2ccc(Cl)cc2)cc1 | 17 µM | 30 µM | 29 µM (≈ 11.2 µg/mL) | 24 µM | 42 µM | 40 µM (≈ 15.5 µg/mL) | 25 µM | 53 µM | 46 µM (≈ 17.8 µg/mL) | 18 µM | 32 µM | 31 µM (≈ 12 µg/mL) | 15 µM | 22 µM | 24 µM (≈ 9.31 µg/mL) |
| O=C(Cn1ccnc1[N+](=O)[O-])Nc1ccc(Oc2ccc(F)cc2)cc1 | 78 µM | > 200 µM | > 200 µM | 75 µM | 190 µM | 200 µM (≈ 71.3 µg/mL) | 65 µM | > 100 µM | >200 µM | 70 µM | > 100 µM | > 200 µM | 46 µM | > 100 µM | >200 µM |
| O=C(Cn1cnc([N+](=O)[O-])n1)N1CCN(Cc2ccc(C(F)(F)F)cc2)CC1 | 32 µM | 41 µM | 45 µM (≈ 17.9 µg/mL) | 27 µM | 31 µM | 28 µM (≈ 11.2 µg/mL) | 32 µM | 44 µM | 48 µM (≈ 19.1 µg/mL) | 26 µM | 32 µM | 28 µM (≈ 11.2 µg/mL) | 21 µM | 32 µM | 31 µM (≈ 12.3 µg/mL) |
| O=C(CCn1cnc([N+](=O)[O-])n1)Nc1ccc(Oc2ccccc2)cc1 | 29 µM | 40 µM | 48 µM (≈ 17 µg/mL) | 32 µM | 68 µM | 62 µM (≈ 21.9 µg/mL) | 38 µM | 71 µM | 59 µM (≈ 20.8 µg/mL) | 26 µM | 53 µM | 56 µM (≈ 19.8 µg/mL) | 28 µM | 42 µM | 48 µM (≈ 17 µg/mL) |
| C[C@H]1COc2c(N3CCN(C)CC3)c(F)cc3c(=O)c(C(=O)O)cn1c23.C[C@H]1COc2c(N3CCN(C)CC3)c(F)cc3c(=O)c(C(=O)O)cn1c23.O [LEVOFLOXACIN] |  |  | 1.4 µM |  |  | 14 µM |  |  | 1.1 µM |  |  | 1.3 µM |  |  | 0.85 µM |
| CO[C@H]1/C=C/O[C@@]2(C)Oc3c(C)c(O)c4c(O)c(c(/C=N/N5CCN(C)CC5)c(O)c4c3C2=O)NC(=O)/C(C)=C\C=C\[C@H](C)[C@H](O)[C@@H](C)[C@@H](O)[C@@H](C)[C@H](OC(C)=O)[C@@H]1C [RIFAMPIN] |  |  | > 50 µM |  |  | >0.04 µM |  |  | 0.012 µM (≈ 0.00988 µg/mL) |  |  | 0.011 µM (≈ 0.00905 µg/mL) |  |  | 7.2 µM (≈ 5.93 µg/mL) |
| O=C(Cn1cnc([N+](=O)[O-])n1)Nc1ccc(Oc2ccccc2)cc1 | 55 µM | 170 µM | 116 µM (≈ 39.4 µg/mL) | 70 µM | 130 µM | 200 µM (≈ 67.9 µg/mL) | 73 µM | 130 µM | 125 µM (≈ 42.4 µg/mL) | 66 µM | 110 µM | > 200 µM | 70 µM | 150 µM | 133 µM (≈ 45.1 µg/mL) |
